Source: article PMC6900016, “Synthesis of Indomorphan Pseudo‐Natural Product Inhibitors of Glucose Transporters GLUT‐1 and ‐3” (Angewandte Chemie (International Ed. in English), 2019)

How the values were obtained:
Test in all cases: cells
Design in all cases: Cell growth inhibition, sulforhodamine B total protein staining
JEG3 = conditions: Homo sapiens, JEG-3; 72 h growth; read-out: Cell growth inhibition IC50/µM
Description: (§1) Cell panel profiling A panel of 94 cell lines was exposed to Glupin for 72 h to assess the influence on cell growth (Oncolead, Germany). Cell growth was determined using sulforhodamine B assay. Measurements were performed using a total protein staining protocol. Briefly, after treatement cells were fixed addition of 10% TCA (for adherent growing cells) or 50% TCA (for semi-adherent growing cells or cells growing in suspension). After an incubation at 4°C for 1 h, plates were washed twice with 400 μl of deionized water and dried. Cells were then stained with 100 μl of 0.04% wt/v sulforhodamine B. Plates were incubated at room temperature for at least 30 min and washed six times with 1% acetic acid to remove unbound stain. […] This effect was much stronger at a physiological glucose concentration (5 mM; Figure 5 b,c). […] IC50 values lower than 300 nM were obtained for more than 20 cell lines, whereas 24 cell lines were not affected by the compound, among them the peripheral blood mononuclear control cells (PBMCs). Sensitivity to Glupin was detected across various tissue types (Table S6).

BT20 = conditions: Homo sapiens, BT-20; 72 h growth; read-out: Cell growth inhibition IC50/µM
Description: as §1

SKOV3 = conditions: Homo sapiens, SK-OV-3; 72 h growth; read-out: Cell growth inhibition IC50/µM
Description: as §1

MV411 = conditions: Homo sapiens, MV4-11; 72 h growth; read-out: Cell growth inhibition IC50/µM
Description: as §1

CACO2 = conditions: Homo sapiens, Caco-2; 72 h growth; read-out: Cell growth inhibition IC50/µM
Description: as §1

786O = conditions: Homo sapiens, 786-0; 72 h growth; read-out: Cell growth inhibition IC50/µM
Description: as §1

IGROV1 = conditions: Homo sapiens, IGROV-1; 72 h growth; read-out: Cell growth inhibition IC50/µM
Description: as §1

U87MG = conditions: Homo sapiens, U-87 MG; 72 h growth; read-out: Cell growth inhibition IC50/µM
Description: as §1

HT29 = conditions: Homo sapiens, HT-29; 72 h growth; read-out: Cell growth inhibition IC50/µM
Description: as §1

SUDHL10 = conditions: Homo sapiens, SU-DHL10; 72 h growth; read-out: Cell growth inhibition IC50/µM
Description: as §1

A549 = conditions: Homo sapiens, A549; 72 h growth; read-out: Cell growth inhibition IC50/µM
Description: as §1

SKBR3 = conditions: Homo sapiens, SK-BR-3; 72 h growth; read-out: Cell growth inhibition IC50/µM
Description: as §1

SKNAS = conditions: Homo sapiens, SK-N-AS; 72 h growth; read-out: Cell growth inhibition IC50/µM
Description: as §1

DLD1 = conditions: Homo sapiens, DLD-1; 72 h growth; read-out: Cell growth inhibition IC50/µM
Description: as §1

HS578T = conditions: Homo sapiens, Hs-578T; 72 h growth; read-out: Cell growth inhibition IC50/µM
Description: as §1

22RV1 = conditions: Homo sapiens, 22Rv1; 72 h growth; read-out: Cell growth inhibition IC50/µM
Description: as §1

SNB75 = conditions: Homo sapiens, SNB-75; 72 h growth; read-out: Cell growth inhibition IC50/µM
Description: as §1

JIMT1 = conditions: Homo sapiens, JIMT-1; 72 h growth; read-out: Cell growth inhibition IC50/µM
Description: as §1

PANC1 = conditions: Homo sapiens, PANC-1; 72 h growth; read-out: Cell growth inhibition IC50/µM
Description: as §1

SF295 = conditions: Homo sapiens, SF-295; 72 h growth; read-out: Cell growth inhibition IC50/µM
Description: as §1

HCT116 = conditions: Homo sapiens, HCT-116; 72 h growth; read-out: Cell growth inhibition IC50/µM
Description: as §1

PBMC = conditions: PBMC; 72 h growth; read-out: Cell growth inhibition IC50/µM
Description: as §1

5637 = conditions: 72 h growth; read-out: Cell growth inhibition IC50/µM
Description: as §1

IC50 (BT20): > 30 µM | IC50 (SKOV3): 6.07 µM | IC50 (MV411): > 30 µM | IC50 (CACO2): 3.51 µM | IC50 (U87MG): > 30 µM | IC50 (HT29): 3.35 µM | IC50 (SUDHL10): 0.219 µM | IC50 (A549): 0.32 µM | IC50 (SKBR3): > 30 µM | IC50 (SKNAS): 0.175 µM | IC50 (DLD1): 0.825 µM | IC50 (22RV1): 5.57 µM | IC50 (PANC1): 0.706 µM | IC50 (HCT116): 1.47 µM
SMILES: CCOC(=O)Cn1c2c(c3ccccc31)C[C@@H]1C[C@H]2C(OC)CN1C(=O)c1cccnc1SC (single isomer, unassigned; (+)) [(+)-5a, Glupin]
IC50 (JEG3): 0.933 µM | IC50 (786O): 0.274 µM | IC50 (IGROV1): 1.76 µM | IC50 (HS578T): 0.12 µM | IC50 (SNB75): 9.13 µM | IC50 (JIMT1): 0.113 µM | IC50 (SF295): 0.427 µM | IC50 (PBMC): > 30 µM | IC50 5637: 0.114 µM
